From the supplement of paper PMC10307832

Assays:
Experiment in all cases: relative viability (nuclei count vs DMSO), 5 days (fraction); higher = more cells survive
RU-SKI 43 + Tozasertib = compound: CC[C@@H](C)CNCC(=O)N1CCC2=C([C@@H]1COC3=CC=CC(=C3)C)C=CS2 [RU-SKI 43] + Cc1cc(Nc2cc(N3CCN(C)CC3)nc(Sc3ccc(NC(=O)C4CC4)cc3)n2)n[nH]1 [Tozasertib] (partner 0.1 µM)
Summary of the method: (§1)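 Lung cancer cell lines in 1536-well plates got either a single drug or a fixed anchor-drug dose together with five library-drug doses (not always all listed) in √10 steps, by pin tool, on the day after seeding. Nuclei were counted after 5 days, and relative viability is the treated-to-vehicle ratio of nuclei counts. Values are medians of duplicate plates.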

RU-SKI 43 + Olaparib = compound: CC[C@@H](C)CNCC(=O)N1CCC2=C([C@@H]1COC3=CC=CC(=C3)C)C=CS2 [RU-SKI 43] + O=C(c1cc(Cc2n[nH]c(=O)c3ccccc23)ccc1F)N1CCN(C(=O)C2CC2)CC1 [Olaparib] (partner 8 µM)
Summary of the method: as §1

Irinotecan + Linsitinib = compound: CCc1c2c(nc3ccc(OC(=O)N4CCC(N5CCCCC5)CC4)cc13)-c1cc3c(c(=O)n1C2)COC(=O)[C@]3(O)CC [Irinotecan] + C[C@]1(O)C[C@@H](c2nc(-c3ccc4ccc(-c5ccccc5)nc4c3)c3c(N)nccn32)C1 [Linsitinib] (partner 1 µM)
Summary of the method: as §1

Irinotecan + Phenformin = compound: CCc1c2c(nc3ccc(OC(=O)N4CCC(N5CCCCC5)CC4)cc13)-c1cc3c(c(=O)n1C2)COC(=O)[C@]3(O)CC [Irinotecan] + N=C(N)NC(=N)NCCc1ccccc1 [Phenformin] (partner 250 µM)
Summary of the method: as §1

Cell Line	relative viability (RU-SKI 43 + Tozasertib; first compound 0.1 µM)	relative viability (RU-SKI 43 + Tozasertib; first compound 0.3162 µM)	relative viability (RU-SKI 43 + Tozasertib; first compound 1 µM)	relative viability (RU-SKI 43 + Tozasertib; first compound 3.162 µM)	relative viability (RU-SKI 43 + Tozasertib; first compound 10 µM)	relative viability (RU-SKI 43 + Olaparib; first compound 0.1 µM)	relative viability (RU-SKI 43 + Olaparib; first compound 0.3162 µM)	relative viability (RU-SKI 43 + Olaparib; first compound 1 µM)	relative viability (RU-SKI 43 + Olaparib; first compound 3.162 µM)	relative viability (RU-SKI 43 + Olaparib; first compound 10 µM)	relative viability (Irinotecan + Linsitinib; first compound 0.6325 µM)	relative viability (Irinotecan + Linsitinib; first compound 2 µM)	relative viability (Irinotecan + Linsitinib; first compound 6.325 µM)	relative viability (Irinotecan + Linsitinib; first compound 20 µM)	relative viability (Irinotecan + Phenformin; first compound 0.6325 µM)	relative viability (Irinotecan + Phenformin; first compound 2 µM)	relative viability (Irinotecan + Phenformin; first compound 6.325 µM)	relative viability (Irinotecan + Phenformin; first compound 20 µM)
NCI-H1651	0.649	0.722	0.839	0.642	0.572	0.16	0.188	0.195	0.213	0.185	0.803	0.542	0.203	0.159	0.259	0.34	0.242	0.14
NCI-H1355	0.516	0.617	0.618	0.562	0.447	0.742	0.72	0.724	0.797	0.775	0.671	0.403	0.2	0.201	–	0.46	0.278	0.248
NCI-H1563	–	–	–	–	–	–	–	–	–	–	1.09	1.27	0.969	0.718	0.634	0.691	0.608	0.38
NCI-H1650	0.381	0.374	0.38	0.427	0.303	0.654	1.03	0.823	0.919	0.709	–	–	–	–	–	0.418	0.34	0.196
HCC-78	0.395	0.569	0.432	0.406	0.318	0.849	1.02	0.767	0.868	0.856	0.577	0.418	0.204	0.184	0.733	0.546	0.257	0.229
NCI-H1437	0.362	0.34	0.443	0.379	0.38	0.638	0.681	0.632	0.643	0.575	0.61	0.593	0.28	0.142	0.296	0.306	0.163	0.144
BEN	0.502	0.426	0.546	0.495	0.509	1.16	1.2	1.09	1.09	1.07	1.06	0.7	0.3	0.378	0.242	0.247	0.24	0.272
LCLC-103H	0.411	0.445	0.498	0.501	0.373	0.748	0.865	0.882	0.829	0.816	0.91	0.352	0.362	0.411	0.344	0.358	0.256	0.321
NCI-H1915	0.435	0.516	0.38	0.469	0.4	0.266	0.288	0.25	0.261	0.251	0.374	0.238	0.187	0.171	0.268	0.27	0.2	0.195
NCI-H2085	0.716	0.71	0.854	0.743	0.671	0.765	0.681	0.717	0.741	0.785	0.584	0.672	0.381	0.497	0.662	0.702	0.559	0.478
